Tests used:
Type in all cases: cell-based
[1] = system: Tpx-C primed spleen cells from BALB/c mice; assay: In vitro proliferation assay, Tpx-C primed spleen cells; conditions: BALB/c mice after 4 immunizations with r-fragment Tpx-C (residue 101-163)
Method: FIG. 16. Stimulation index profile of BALB/c mice spleen cells after 4 immunizations with Tpx-C. Stimulation was tested with peptide or protein at three different concentrations: Open bars--1×10^-5 M peptide, 5×10^-6 M Frag C or Tpx-C; "uphill" hatch--1.25×10^-6 M peptide; 6.25×10^-7 M Frag C or Tpx-C; "downhill" hatch--1.56×10^-7 M peptide, 7.8×10^-8 M Frag C, Tpx-C: and stippled--9.75×10^-9 M Frag-C or Tpx-C. The blank was 5110 cpm.
(§1) The peptides of the invention can be tested in a proliferation assay for T cell responses. Generally, lymphocytes from a sensitized host are obtained. The host can be a mouse that has been immunized with a vespid venom antigen 5, or with a crossreactive protein, such as testes specific protein. Using techniques that are well known in the art, T lymphocyte response to the peptide can be measured in vitro. In a specific embodiment, infra, T cell responses are detected by measuring incorporation of ^3 H-thymidine, which increases with DNA synthesis associated with proliferation. Cell proliferation can also be detected using an MTT assay [Mossman, J. Immunol. Methods, 65:55-63,(1983); Niks and Otto, J. Immunol. Methods, 130:140-151 (1990)]. Alternatively, lymphokine production assays can be practiced according to the present invention. In one embodiment, lymphokine production can be assayed using immunological or co-stimulation assays [see, e.g., Fehlner et al., J. Immunol., 146:799 (1991)] or using the ELISPOT technique [Czerkinsky, et al., J. Immunol. Methods, 110:29 (1988)]. Alternatively, mRNA for lymphokines can be detected, e.g., by amplification [see Brenner, et al., Biotechniques, 7:1096 (1989)] or in situ hybridization [see, e.g., Kasaian and Biron, J. Immunol., 142:1287 (1989)]. Of particular interest are those individuals whose T cells produce lymphokines associated with IgE isotype switch events, e.g., IL-4 and IL-5 [Purkeson and Isakson, J. Exp. Med., 175:973-982 (1992)]. Also of interest are the peptide fragments of the vespid venom antigen 5 that contain epitopes recognized by T cells involved in IgE switch events. […]

[2] = system: r-Ag5 specific spleen cells from mice of different strains; assay: Summary of proliferation indices across mouse strains; conditions: four strains BALB/c, ASW/Sn, C3H/He, P/J, C57B1/6 excluded
Description: Summary of proliferation indices of r-Ag5 specific spleen
cells from mice of different strains on stimulation with the
dominant T cell epitope peptides^1
^1 Dominant T cell epitopes are defined as those peptides which showe
stimulation indices of ≥4 in at least one of 5 strains of mice
The present Example defines indices of 4 or greater for proliferation of Ag5- specific cells as containing a T cell epitope of Ag5. With this definition, the data in FIGS. 3-13 for mice of 5 strains with different haplotypes would indicate that the T cell epitopes of Ag5 are distributed throughout the entire molecule. As C57B1/6 mice is a poor responder, its data are excluded in the following comparison.
The data in Table 4 indicate that 14 peptides contain T cell epitopes of Ag5. Three of these peptides are recognized by three of the four strains tested, five of them by two strains and the remaining six by only one strain. […] They are peptides 1, 2, 5, 6, 9, 15, 20 and 18. […] This is particularly apparent for peptides 6, 20, and 18.

[3] = system: Ag5 specific spleen cells from BALB/c mice; assay: In vitro proliferation assay, spleen cells of Ag5-immunized BALB/c mice; conditions: for Stimulation Index BALB/c: spleen cells from mice immunized with rAg5, blank 3970 cpm
Method: FIG. 4. Stimulation index profile of BALB/c mice spleens after 4 immunizations with natural (n)-Ag5. In vitro proliferation assays were performed with peptides at three concentrations: 1×10^-5 M (open bar), 1.25×10^-6 M ("uphill" hatch), and 1.56×10^-7 M ("downhill" hatch). The corresponding concentrations of recombinant antigen 5 control were 1.0×10^-6 M, 1.25×10^-7, and 1.56×10^-8 M. The blank was 2200 cpm.
FIG. 5. Stimulation index profile of BALB/c mice spleens after 4 immunizations with recombinant (r)-Ag5. In vitro proliferation assays were performed with peptides at three concentrations: 1×10^-5 M (open bar), 1.25×10^-6 M ("uphill" hatch), and 1.56×10^-7 M ("downhill" hatch). The corresponding concentrations of recombinant Antigen 5 were 1.0×10^-6 M, 1.25×10^-7, and 1.56×10^-8 M. The blank was 4700 cpm.
FIG. 6. […] In vitro proliferation assays were performed with peptides at three concentrations: 1×10^-5 M (open bar), 1.25×10^-6 M ("uphill" hatch), and 1.56×10^-7 M ("downhill" hatch). The corresponding concentrations of recombinant Antigen 5 were 1.0×10^-6 M, 1.25×10^-7, and 1.56×10^-8 M. […]
as §1

[4] = system: r-Ag5 specific spleen cells from C3H/He mice; assay: In vitro proliferation assay, spleen cells of r-Ag5-immunized C3H/He mice; conditions: spleen cells from mice immunized 5 times with rAg5; blank 3130 cpm
Method: FIG. 13. Stimulation index profile of C3H/He mice spleens after 5 immunizations with r-Ag5. In vitro proliferation assays were performed with peptides at three concentrations: 1×10^-5 M (open bar), 1.25×10^-6 M ("uphill" hatch), and 1.56×10^-7 M ("downhill" hatch). The corresponding concentrations of recombinant Antigen 5 were 1.0×10^-6 M, 1.25×10^-7, and 1.56×10^-8 M. The blank was 3130 cpm.
(§2) The peptides of the invention can be tested in a proliferation assay for T cell responses. Generally, lymphocytes from a sensitized host are obtained. The host can be a mouse that has been immunized with a vespid venom antigen 5, or with a crossreactive protein, such as testes specific protein. Using techniques that are well known in the art, T lymphocyte response to the peptide can be measured in vitro. In a specific embodiment, infra, T cell responses are detected by measuring incorporation of ^3 H-thymidine, which increases with DNA synthesis associated with proliferation. Cell proliferation can also be detected using an MTT assay [Mossman, J. Immunol. Methods, 65:55-63,(1983); Niks and Otto, J. Immunol. Methods, 130:140-151 (1990)]. […] Alternatively, mRNA for lymphokines can be detected, e.g., by amplification [see Brenner, et al., Biotechniques, 7:1096 (1989)] or in situ hybridization [see, e.g., Kasaian and Biron, J. Immunol., 142:1287 (1989)]. […]

[5] = system: r-Ag5 specific spleen cells from ASW/Sn mice; assay: In vitro proliferation assay, spleen cells of r-Ag5-immunized ASW/Sn mice; conditions: spleen cells from mice immunized 5 times with rAg5; blank 5640 cpm
Method: FIG. 11. Stimulation index profile of ASW/sn mice spleens after 5 immunizations with r-Ag5. In vitro proliferation assays were performed with peptides at three concentrations: 1×10^-5 M (open bar), 1.25×10^-6 M ("uphill" hatch), and 1.56×10^-7 M ("downhill" hatch). The corresponding concentrations of recombinant Antigen 5 were 1.0×10^-6 M, 1.25×10^-7, and 1.56×10^-8 M. The blank was 5640 cpm.
as §1

[6] = system: r-Ag5 specific spleen cells from C57B1/6 mice; assay: In vitro proliferation assay, spleen cells of r-Ag5-immunized C57B1/6 mice; conditions: spleen cells from mice immunized 5 times with rAg5; blank 1050 cpm
Method: FIG. 14. Stimulation index profile of CS7B1/6 mice spleens after 5 immunizations with r-Ag5. In vitro proliferation assays were performed with peptides at three concentrations: 1×10^-5 M (open bar), 1.25×10^-6 M ("uphill" hatch), and 1.56×10 ^-7 M ("downhill" hatch). The corresponding concentrations of recombinant Antigen 5 were 1.0×10^-6 M, 1.25×10^-7, and 1.56×10^-8 M. The blank was 1050 cpm.
as §2

[7] = system: Tpx-N primed spleen cells from BALB/c mice; assay: In vitro proliferation assay, Tpx-N primed spleen cells; conditions: BALB/c mice after 4 immunizations with r-fragment Tpx-N (residue 14-106)
Method: FIG. 15. Stimulation index profile of BALB/c mice spleen cells after 4 immunizations with Tpx-N. Stimulation was tested with peptide or protein at three different concentrations: Open bars--1.0×10^-5 M peptide or Frag IN, 2.5×10^-6 M Tp X-N; "uphill" hatch--1.25×10^-6 M peptide or Frag IN. 3.13×10^-7 M, Tpx-N; "downhill" hatch--1.5×10^-7 M peptide and Frag IN, 3.91×10^-8 M Tpx-N; and stippled --1.96×10^-8 M Frag IN, 4.89×10^-9 M Tpx-N. The blank was 7270 cpm.
as §1, with “(1992)].” for “(1992)]. Also of interest are the peptide fragments of the vespid venom antigen 5 that contain epitopes recognized by T cells involved in IgE switch events.”

With “fragment C: recombinant C-terminal fragment of hornet antigen 5, residue 151-204 (NPKKGTMGDNNFSKVGHYTQMVWGKTKEIGCGSVKYIENNWHTHYLVCNYGPAG)” as the molecule, how does the “stimulation indices, Tpx-C primed spleen cells (FIG. 16)” value (“stimulation indices … (FIG. 16)” for short) [1] read?
The value was 9.

What about the “stimulation indices … (FIG. 16)” value ([1]; listed as r-fragment C) of the same molecule?
The value was “responded equally well”.

How did the “recognition by more than one mouse strain (stimulation indices of ≥4)” value (from here on “recognition”) [2] turn out when “NNYCKIKCRKGIHTLCKFGT [Peptide 1, white face hornet antigen 5 form 2, residue 1-20]” was run?
Its value is “recognized by two or three strains of mice”.

And the “recognition” value ([2]; listed as SEQ ID NO:8)?
The value was “dominant in more than one strain of mouse”.

What about the “stimulation indices (FIG. 4-6 together)” value ([3]; BALB/c mice immunized 4 times with n-Ag5 or with r-Ag5) of the same molecule?
The value was ≥ 4.

What about the “Stimulation Index BALB/c” value [3] of the same molecule?
Its value is 8.6.

What about the “Stimulation Index C3H/He” value [4] of the same molecule?
Its value is 2.4.

And the “Stimulation Index ASW/Sn” value [5]?
Its value is 1.9.

And the “Stimulation Index C57B1/6” value [6]?
Its value is 2.5.

How did the “recognition” value [2] turn out when “GIHTLCKFGTSMKPNCGRNV [Peptide 2, white face hornet antigen 5 form 2, residue 11-30]” was run?
The value was “recognized by two or three strains of mice”.

What about the “recognition” value ([2]; listed as SEQ ID NO:9) of the same molecule?
The value was “dominant in more than one strain of mouse”.

And the “Stimulation Index BALB/c” value [3]?
Its value is 2.9.

What about the “Stimulation Index ASW/Sn” value [5] of the same molecule?
The value was 2.2.

What about the “Stimulation Index C57B1/6” value [6] of the same molecule?
The value was 1.9.

B1: Tpx-C: recombinant fragment of mouse testis protein Tpx, residue 101-163 (protein)
chain: MSTDPTLWSTVIQSWYNENEDFVYGVGAKPNSAVGHYTQLVWYSSFKIGCGIAYCPNQDNLKY
Which “stimulation indices … (FIG. 16)” value [1] does the source give for B1 here?
The value was “greater than 15”.

B2: fragment IN: recombinant N-terminal fragment of hornet antigen 5, residue 1-114 (protein)
chain: PIINLSFGEANNYCKIKCSRGIHTLCKFGTSMKPNCGSKLVKVHGVSNDEKNEIVNRHNQFRQKVAKGLETRGNPGPQPPAKNMNVLVWNDELAKIAQTWANQCSFGHDQCRNT
For B2, which “stimulation indices, Tpx-N primed spleen cells (FIG. 15)” value (“stimulation indices … (FIG. 15)” for short) [7] is on record?
Its value is “greater than 6”.

And the “stimulation indices … (FIG. 15)” value ([7]; listed as r-fragment IN)?
The value was “responded equally well”.

B3: Tpx-N: recombinant fragment of mouse testis protein Tpx, residue 14-106 (protein)
chain: LLRSPLTEGKDPDFTSLLTNQLQVQREIVNKHNELRRSVNPTGSDILKMEWSIQATTNAQKWANKCILEHSSKDDRKINIRCGENLYMSTDPT
How did the “stimulation indices … (FIG. 15)” value [7] turn out when B3 was run?
Its value is “greater than 6”.
